Measurements as given in patent US5900488A, “Method for treating mycosis using imidazolylacetonitrile derivatives” (Nihon Nohyaku Co., Ltd., priority 1995, dated 1999).
≈ marks a conversion by molar mass, not a printed value. Like-named read-outs stand apart in the source and are kept apart here.

How the values were obtained:
[1] = tested on: Trichophyton mentagrophytes; test: In vitro activity against Trichophyton mentagrophytes, MIC by twofold macro-broth dilution (Test Example 1); type: cell-based; conditions: Trichophyton mentagrophytes, 7 days at 27° C.
Experimental: (§1) Minimum inhibitory concentrations (MICs) were determined by the twofold macro-broth dilution method with Sabouraud's glucose broth which constituted with 1% bactopeptone and 4% glucose. To each tube containing 9.8 ml of the broth, 0.1 ml of each testing compound dissolved in DMSO and 0.1 ml of a conidial suspension (1×10^6 conidia/ml) were added. The fungal growth was observed after incubation for 7 days at 27° C. The MIC was determined as the lowest drug concentration which prevented a visible fungal growth.

Aspergillus fumigatus = test: In vitro antifungal activity against Aspergillus fumigatus, MIC by twofold agar dilution (Test Example 4); type: cell-based; conditions: read-out: MIC
Experimental: MICs were determined by the twofold agar dilution method with casitone agar which constituted with 0.9% bactocasitone, 1% bacto-yeast extract, 2% glucose, 0.1% KH2 PO4, 0.1% Na2 HPO4, 1% Na3 C6 H5 O7 and 1.6% agar. A loopful of each inoculum (1×10^6 conidia/ml) was streaked onto the agar plate containing a compound, and a fungal growth was observed after incubation for 48 hours at 35° C. The MIC was determined as the lowest drug concentration which prevented a visible fungal growth.

dermatophytes = test: Antifungal activity against dermatophytes compared with racemic mixtures (general statement); conditions: especially highly sensitive strains
Candida albicans = test: In vitro antifungal activity against Candida albicans, MIC by twofold micro-broth dilution (Test Example 3); type: cell-based
Experimental: MICs were determined by the twofold micro-broth dilution method with RPMI 1640 buffered with morphorino-propanesulfonic acid to a final molarity of 0.165M (pH 7.0). One hundred μl of a yeast cell suspension (1 to 5×10^3 cells/ml) and 100 μl of the compound-containing medium were pipetted into each well flat-bottomed microtiter plates. After incubation for 48 hours at 35° C., the turbidity of each well was measured at 630 nm.

Trichophyton rubrum = test: In vitro activity against Trichophyton rubrum, MIC by twofold macro-broth dilution (Test Example 1); type: cell-based
Experimental: as §1

[2] = IFO5466, 168 h, strain IFO 5466
[3] = IFO5809, 168 h, strain IFO 5809
[4] = IFO5810, 168 h, strain IFO 5810
[5] = IFO5811, 168 h, strain IFO 5811
[6] = IFO5929, 168 h, strain IFO 5929
[7] = TIMM1189, 168 h, strain TIMM 1189
[8] = TIMM1814, 168 h, strain TIMM 1814
[9] = TIMM1815, 168 h, strain TIMM 1815
[10] = TIMM1817, 168 h, strain TIMM 1817
[11] = TIMM2789, 168 h, strain TIMM 2789
[12] = IFO0197, strain IFO 0197, 80% inhibition, 48 hours at 35° C., pH 7.0, read-out: MIC
[13] = IFO0579, strain IFO 0579, 80% inhibition, 48 hours at 35° C., pH 7.0, read-out: MIC
[14] = IFO1269, strain IFO 1269, 80% inhibition, 48 hours at 35° C., pH 7.0, read-out: MIC
[15] = IFO1270, strain IFO 1270, 80% inhibition, 48 hours at 35° C., pH 7.0, read-out: MIC
[16] = IFO1385, strain IFO 1385, 80% inhibition, 48 hours at 35° C., pH 7.0, read-out: MIC
[17] = IFO1386, strain IFO 1386, 80% inhibition, 48 hours at 35° C., pH 7.0, read-out: MIC
[18] = TIMM3163, strain TIMM 3163, 80% inhibition, 48 hours at 35° C., pH 7.0, read-out: MIC
[19] = TIMM3164, strain TIMM 3164, 80% inhibition, 48 hours at 35° C., pH 7.0, read-out: MIC
[20] = TIMM3165, strain TIMM 3165, 80% inhibition, 48 hours at 35° C., pH 7.0, read-out: MIC
[21] = TIMM3166, strain TIMM 3166, 80% inhibition, 48 hours at 35° C., pH 7.0, read-out: MIC
[22] = IFO5467, 168 h, strain IFO 5467, 7 days at 27° C.
[23] = IFO5807, 168 h, strain IFO 5807, 7 days at 27° C.
[24] = IFO5808, 168 h, strain IFO 5808, 7 days at 27° C.
[25] = IFO6203, 168 h, strain IFO 6203, 7 days at 27° C.
[26] = IFO6204, 168 h, strain IFO 6204, 7 days at 27° C.
[27] = IFO9185, 168 h, strain IFO 9185, 7 days at 27° C.
[28] = TIMM1822, 168 h, strain TIMM 1822, 7 days at 27° C.
[29] = TIMM1823, 168 h, strain TIMM 1823, 7 days at 27° C.
[30] = TIMM1824, 168 h, strain TIMM 1824, 7 days at 27° C.
[31] = TIMM1830, 168 h, strain TIMM 1830, 7 days at 27° C.

| MIC [1, 2] | MIC [1, 3] | MIC [1, 4] | MIC [1, 5] | MIC [1, 6] | MIC [1, 7] | MIC [1, 8] | MIC [1, 9] | MIC [1, 10] | MIC [1, 11] | MIC (Candida albicans; [12]) | MIC (Candida albicans; [13]) | MIC (Candida albicans; [14]) | MIC (Candida albicans; [15]) | MIC (Candida albicans; [16]) | MIC (Candida albicans; [17]) | MIC (Candida albicans; [18]) | MIC (Candida albicans; [19]) | MIC (Candida albicans; [20]) | MIC (Candida albicans; [21]) | SMILES | other results |
| --- | --- | --- | --- | --- | --- | --- | --- | --- | --- | --- | --- | --- | --- | --- | --- | --- | --- | --- | --- | --- | --- |
| 0.02 µg/mL (≈ 0.0565 µM) | 0.005 µg/mL (≈ 0.0141 µM) | 0.005 µg/mL (≈ 0.0141 µM) | 0.01 µg/mL (≈ 0.0282 µM) | 0.01 µg/mL (≈ 0.0282 µM) | 0.01 µg/mL (≈ 0.0282 µM) | 0.02 µg/mL (≈ 0.0565 µM) | 0.02 µg/mL (≈ 0.0565 µM) | 0.01 µg/mL (≈ 0.0282 µM) | 0.0025 µg/mL (≈ 0.00706 µM) | 0.0625 µg/mL (≈ 0.176 µM) | 0.0313 µg/mL (≈ 0.0883 µM) | 0.0625 µg/mL (≈ 0.176 µM) | 0.25 µg/mL (≈ 0.706 µM) | 0.0625 µg/mL (≈ 0.176 µM) | 0.125 µg/mL (≈ 0.353 µM) | 16 µg/mL (≈ 45.2 µM) | 0.5 µg/mL (≈ 1.41 µM) | 2 µg/mL (≈ 5.65 µM) | 1 µg/mL (≈ 2.82 µM) | N#C/C(=C1/SC[C@@H](c2ccc(Cl)cc2Cl)S1)n1ccnc1 [Compound (B), R-(-)-(E)-[4-(2,4-dichlorophenyl)-1,3-dithiolan-2-ylidene]-1-imidazolylacetonitrile] | MIC (Aspergillus fumigatus; TIMM0063, strain TIMM 0063, 48 hours at 35° C.): 0.00063 µg/mL (≈ 0.00178 µM); MIC (Aspergillus fumigatus; TIMM0078, strain TIMM 0078, 48 hours at 35° C.): 0.00063 µg/mL (≈ 0.00178 µM); MIC (Aspergillus fumigatus; TIMM1728, strain TIMM 1728, 48 hours at 35° C.): ≤ 0.00031 µg/mL; MIC (Aspergillus fumigatus; TIMM1767, strain TIMM 1767, 48 hours at 35° C.): 0.00063 µg/mL (≈ 0.00178 µM); antifungal activity relative to the racemic mixtures (dermatophytes): several times; sensitivity (in words) (Trichophyton rubrum): highly sensitive; MIC (Trichophyton rubrum; [22]): 0.0025 µg/mL (≈ 0.00706 µM); MIC (Trichophyton rubrum; [23]): 0.0025 µg/mL (≈ 0.00706 µM); MIC (Trichophyton rubrum; [24]): 0.0025 µg/mL (≈ 0.00706 µM); MIC (Trichophyton rubrum; [25]): 0.0013 µg/mL (≈ 0.00367 µM); MIC (Trichophyton rubrum; [26]): 0.0025 µg/mL (≈ 0.00706 µM); MIC (Trichophyton rubrum; [27]): 0.0013 µg/mL (≈ 0.00367 µM); MIC (Trichophyton rubrum; [28]): 0.00063 µg/mL (≈ 0.00178 µM); MIC (Trichophyton rubrum; [29]): 0.0013 µg/mL (≈ 0.00367 µM); MIC (Trichophyton rubrum; [30]): 0.0013 µg/mL (≈ 0.00367 µM); MIC (Trichophyton rubrum; [31]): 0.00063 µg/mL (≈ 0.00178 µM) |
|  |  |  |  |  |  |  |  |  |  |  |  |  |  |  |  |  |  |  |  | OC(Cn1cncn1)(Cn1cncn1)c1ccc(F)cc1F [FCZ, 2(2,4-Difluorophenyl)-1,3-bis(1H-1,2,4-triazol-1-yl)-2-propanol] | MIC (Candida albicans; IFO0197, 48 h, pH 7): 0.25 µg/mL (≈ 0.816 µM); MIC (Candida albicans; IFO0579, 48 h, pH 7): 0.125 µg/mL (≈ 0.408 µM); MIC (Candida albicans; IFO1269, 48 h, pH 7): 0.25 µg/mL (≈ 0.816 µM); MIC (Candida albicans; IFO1270, 48 h, pH 7): 0.25 µg/mL (≈ 0.816 µM); MIC (Candida albicans; IFO1385, 48 h, pH 7): 0.25 µg/mL (≈ 0.816 µM); MIC (Candida albicans; IFO1386, 48 h, pH 7): 0.5 µg/mL (≈ 1.63 µM); MIC (Candida albicans; TIMM3163, 48 h, pH 7): 16 µg/mL (≈ 52.2 µM); MIC (Candida albicans; TIMM3164, 48 h, pH 7): 2 µg/mL (≈ 6.53 µM); MIC (Candida albicans; TIMM3165, 48 h, pH 7): > 32 µg/mL; MIC (Candida albicans; TIMM3166, 48 h, pH 7): 8 µg/mL (≈ 26.1 µM) |
| 0.02 µg/mL (≈ 0.0686 µM) | 0.01 µg/mL (≈ 0.0343 µM) | 0.005 µg/mL (≈ 0.0172 µM) | 0.01 µg/mL (≈ 0.0343 µM) | 0.01 µg/mL (≈ 0.0343 µM) | 0.01 µg/mL (≈ 0.0343 µM) | 0.01 µg/mL (≈ 0.0343 µM) | 0.02 µg/mL (≈ 0.0686 µM) | 0.01 µg/mL (≈ 0.0343 µM) | 0.0025 µg/mL (≈ 0.00858 µM) | > 32 µg/mL | > 32 µg/mL | 4 µg/mL (≈ 13.7 µM) | > 32 µg/mL | > 32 µg/mL | > 32 µg/mL | > 32 µg/mL | > 32 µg/mL | > 32 µg/mL | > 32 µg/mL | CN(C/C=C/C#CC(C)(C)C)Cc1cccc2ccccc12 [TBF, (E)N-(6,6-Dimethyl-2-hepten-4-ynyl)-N-methyl-1-naphthalenemethaneamine hyrochloride] | MIC (Trichophyton rubrum; [22]): 0.005 µg/mL (≈ 0.0172 µM); MIC (Trichophyton rubrum; [23]): 0.005 µg/mL (≈ 0.0172 µM); MIC (Trichophyton rubrum; [24]): 0.005 µg/mL (≈ 0.0172 µM); MIC (Trichophyton rubrum; [25]): 0.0025 µg/mL (≈ 0.00858 µM); MIC (Trichophyton rubrum; [26]): 0.005 µg/mL (≈ 0.0172 µM); MIC (Trichophyton rubrum; [27]): 0.0025 µg/mL (≈ 0.00858 µM); MIC (Trichophyton rubrum; [28]): 0.0025 µg/mL (≈ 0.00858 µM); MIC (Trichophyton rubrum; [29]): 0.0025 µg/mL (≈ 0.00858 µM); MIC (Trichophyton rubrum; [30]): 0.0013 µg/mL (≈ 0.00446 µM); MIC (Trichophyton rubrum; [31]): 0.00063 µg/mL (≈ 0.00216 µM) |
